In brackets after ≈: the same amount, converted by molar mass.
System: S. aureus
Assay: MIC and MBC antibacterial test
Format: cell-based
Details: Staphylococcus aureus

Structure (SMILES): O=C(O)/C=C/c1ccc(O)c(O)c1 [CA, caffeic acid]
- MBC: 4 µg/mL (≈ 22.2 µM)
- MIC: 4 µg/mL (≈ 22.2 µM)

Reference: US20250101044A1, “METAL-ORGANIC FRAMEWORK COMPOSITE AND PREPARATION METHOD AND USE THEREOF” (priority 2021, published 2025)
